Legend:
[1] = system: exon and intron 23 of the dystrophin gene; test: Example 3: intravenous glucose-formulated AOs, RT-PCR of splice correction; assay type: in vivo, mdx mice; details: single intravenous dose of 25 mg/kg, various muscle groups
Source text: (§1) Given the dramatic enhancement in AO uptake and exon skipping activity and dystrophin restoration observed following intramuscular delivery of glucose-formulated AO we wished to study whether or not such enhancement could also facilitate improved systemic AO delivery and splice correcting activity. Initially we chose to study whether or not systemic PMO AO delivery was enhanced following glucose formulation. We compared PMO formulated in saline with PMO formulated in either 5% glucose or formulated in glucose at a final concentration of 4.5% and delivered these via a single intravenous dose of 25 mg/kg in mdx mice.
We further studied the intravenous enhancing effects by investigating the effects on a peptide conjugated PMO compound using a well characterised arginine-rich peptide (RXR)4.
Total RNA was extracted from skeletal muscle and heart tissue with Trizol (Invitrogen, UK) and 200 ng of RNA template was used for 20 μl RT-PCR with OneStep RT-PCR kit (Qiagen, UK). The primer sequences for the initial RT-PCR were Exon20Fo 5′-[…]-3′ and Ex26Ro 5′-[…]-3′ for amplification of messenger RNA from exons 20 to 26. The cycle conditions were 95° C. for 30 seconds, 55° C. for 1 minute and 72° C. for 2 minutes for 25 cycles. RT-PCR product (1 μl) was then used as the template for secondary PCR performed in 25 μl with 0.5 U Taq DNA polymerase (Invitrogen, UK). […]

[2] = system: exon and intron 23 of the dystrophin gene; test: Example 3: intramuscular glucose-formulated AOs, RT-PCR of exon skipping; assay type: in vivo, mdx mice
Procedure: Total RNA was extracted from skeletal muscle and heart tissue with Trizol (Invitrogen, UK) and 200 ng of RNA template was used for 20 μl RT-PCR with OneStep RT-PCR kit (Qiagen, UK). The primer sequences for the initial RT-PCR were Exon20Fo 5′-[…]-3′ and Ex26Ro 5′-[…]-3′ for amplification of messenger RNA from exons 20 to 26. The cycle conditions were 95° C. for 30 seconds, 55° C. for 1 minute and 72° C. for 2 minutes for 25 cycles. RT-PCR product (1 μl) was then used as the template for secondary PCR performed in 25 μl with 0.5 U Taq DNA polymerase (Invitrogen, UK). The primer sequences for the second round were Ex20Fi 5′-[…]-3′ and Ex24Ri 5′-[…]-3. The cycle conditions were 95° C. for 1 minute, 57° C. for 1 minute, and 72° C. for 2 min for 25 cycles. The products were examined by electrophoresis on a 2% agarose gel.
For intramuscular studies the TA muscle of each experimental mdx mouse was injected with a 40 μl dose of PNA and PNA-peptide conjugates with saline at a final concentration of 125 μg/ml, and the contralateral muscle was injected with saline. For systemic intravenous injections, X μg PNA or PNA-peptide conjugates in 80 μl saline buffer were injected into tail vein of mdx mice at the final dose of 25 mg/kg and 6 mg/kg, respectively. […]

[3] = system: exon and intron 23 of the dystrophin gene; test: Example 3: intramuscular injection of glucose-formulated AOs, dystrophin-positive myofibres by immunohistochemistry; assay type: in vivo; details: intramuscular into TA, 8 week old mdx mice, two weeks
Procedure: Here we study a novel delivery glucose formulation by evaluating it via local intramuscular injection into the mdx mouse tibialis anterior (TA) muscle. Initial experiments were performed in 6-8 week old mdx mice (referred to as 8 weeks) by treatment with a single dose of 5 ug of 2′OMePS AO formulated in 5% glucose. In a parallel control study, age-matched control mdx mice were treated with the same AO dose formulated in standard saline buffer.
For intramuscular studies the TA muscle of each experimental mdx mouse was injected with a 40 μl dose of PNA and PNA-peptide conjugates with saline at a final concentration of 125 μg/ml, and the contralateral muscle was injected with saline. […]
(§2) Sections of 8 μm were cut from at least two-thirds of the muscle length of TA, quadriceps, gastrocnemius, biceps, abdominal wall and diaphragm muscles and cardiac muscle at 100 μm intervals. […] The maximum number of dystrophin-positive fibres in one section was counted using the Zeiss AxioVision fluorescence microscope. […] Polyclonal antibodies were detected by goat-anti-rabbit IgGs Alexa Fluro 594 (Molecular Probe, UK). […] Polyclonal antibodies were detected by goat-anti-rabbit IgGs Alexa 594 and the monoclonal antibodies by goat-anti-mouse IgGs Alexa 594 (Molecular Probe, UK). […]

[4] = system: exon and intron 23 of the dystrophin gene; test: Example 3: intravenous glucose-formulated AOs, dystrophin immunohistochemistry; assay type: in vivo, mdx mice; details: single intravenous dose of 25 mg/kg
Source text: as §1
We further studied the intravenous enhancing effects by investigating the effects on a peptide conjugated PMO compound using a well characterised arginine-rich peptide (RXR)4. […]
as §2

[5] = system: exon and intron 23 of the dystrophin gene; test: Example 3: intramuscular glucose-formulated AOs, Western blot of dystrophin; assay type: in vivo, mdx mice
Procedure: For intramuscular studies the TA muscle of each experimental mdx mouse was injected with a 40 μl dose of PNA and PNA-peptide conjugates with saline at a final concentration of 125 μg/ml, and the contralateral muscle was injected with saline. For systemic intravenous injections, X μg PNA or PNA-peptide conjugates in 80 μl saline buffer were injected into tail vein of mdx mice at the final dose of 25 mg/kg and 6 mg/kg, respectively. The animals were killed at various time points after injection by CO2 inhalation and tissues were removed and snap-frozen in liquid nitrogen-cooled isopentane and stored at −80° C.
The collected sections were placed in a 1.5 ml polypropylene eppendorf tube (Anachem, UK) on dry ice. […] The supernatant was collected and the protein concentration was quantified by Bradford assay (Sigma, UK). […] The bound primary antibody was detected by horseradish peroxidise-conjugated rabbit anti-mouse IgGs and the ECL Western Blotting Analysis system (Amersham Pharmacia Biosciences, UK). The intensity of the bands obtained from treated mdx muscles was measured by Image J software; the quantification is based on band intensity and area, and is compared with that from normal muscles of C57BL6 mice.

Q: What does the source list for “5′-GGCCAAACCTCGGCTTACCTGAAAT-3′ (morpholino backbone, further chemistry not given here) [PMO, neutrally charged PMO AO, M23D, 25 mer]”?
A: dystrophin splice correction at the RNA level, glucose versus saline formulation [1]: enhanced dystrophin splice correction; exon skipping activity at the RNA level, glucose versus saline formulation [2]: enhanced exon skipping activity; dystrophin-positive myofibres, 5% glucose formulation compared with saline formulation [3]: no significant difference; corrected dystrophin-positive fibres, glucose (5% or 4.5%) versus saline formulation [4]: significant enhancements; dystrophin protein expression on Western blot, glucose versus saline formulation [5]: increased dystrophin protein expression
